Laboratory results as given in patent publication US20240343699A1, “DERIVATIVES OF SUBSTITUTED MORPHOLINES AND USES THEREOF” (Supernus Pharmaceuticals, Inc., priority 2023, published 2024).
“And” between values parts separate entries of the source, which are not always exact repeats. Equal entries are not always repeated. Where two headings read alike, the source gives them in different places.

What was measured:
[1] = Metabolic stability in human intestinal homogenate; assay type: in vitro ADME; details: for half-life at 1 μM / microsomal CLint at 1 μM: pH 7.2
Experimental: Incubation Buffer (PBK): 50 mM potassium phosphate buffer (PBK) was prepared from 1 M potassium phosphate buffer, pH 7.2. […] The dilution of 1 mM intermediate was prepared from 10 mM stock with 90% methanol/water, then […] working solutions were prepared by diluting the 1 mM intermediates with 50 mM PBK. […] Prior to use, the stock solutions were brought to room temperature and thoroughly mixed. […] Cofactors Solutions: the cofactor solution was made at 10 mM of NADPH (nicotinamide-adenine dinucleotide phosphate, reduced form) in 50 mM PBK buffer.
The incubation was carried out in 96-well plates. The intestinal homogenate mixture solution was added to 96-well plates (80 μL/well) in duplicate. […] Reaction was initiated by adding cofactor solution at 10 µL/well. The plates were incubated at 37° C. in a water bath with shaking. […] The final organic solvent content in the incubation was ≤1%.
At specified time points, i.e., 5, 10, 20, 30 and 60 minutes, NCF60 (no cofactor at 60 min, without adding NADPH replaced with 50 mM PBK buffer) reaction was stopped by adding three volumes of stop solution. The time zero (To) samples were prepared by adding three volumes of stop solution to intestinal homogenate samples, followed by addition of test article or control, and cofactor solution 10 μL/well.
Subsequently, 100 μL of supernatant was removed from each well, diluted with 100 μL pure water and analyzed by LC/MS/MS.
A study was conducted to examine the metabolic stability. […] Positive controls: 7-hydroxycoumarin and Testosterone.

behavioral signature = experiment: SmartCube phenotypic screening (class/subclass and DRFA similarity analysis); assay type: in vivo, male C57/B16 mice; details: for Subclass signature: COMPOUND A 30-120 mg/kg, COMPOUND B 90 and 120 mg/kg PO; for proximity to donepezil / proximity to thioperamide: DRFA dose by dose, maximum (COMPOUND A: 90 and 120 mg/kg)
Experimental: A study was conducted to evaluate the CNS-like efficacy of novel test compounds using the SmartCube® System.
Animals. Male C57/B16 mice from Taconic Laboratories (Germantown, NY) were used. Upon receipt, mice were group-housed in OPTIMice® ventilated cages with 4 mice per cage. Mice were acclimated to the colony room for at least one week prior to test, and subsequently tested at approximately 8-9 weeks of age. All animals were examined, handled, and weighed prior to initiation of the study to assure adequate health and suitability and to minimize nonspecific stress associated with manipulation. During the course of the study, 12/12 light/dark cycles were maintained. The room temperature was 20-23° C. with a relative humidity maintained between 30-70%. Chow and water were provided ad libitum for the duration of the study.
Test compounds. All compounds were administered orally at a dose volume of 10 mL/kg, 20 minutes prior to testing. Formulations were prepared fresh on day of testing and dosing was completed within one hour of formulation. Compounds were prepared according to the table below. Twelve mice were used in each treatment group:
SmartCube®. The SmartCube® system is designed to and can successfully measure numerous spontaneous behaviors and response to challenges in the same testing environment. The hardware includes force sensors and a number of aversive stimuli to elicit behavior. Three high-resolution video cameras provide constant 3D view of the mouse in the SmartCube® apparatus (SC) throughout the entire testing period. During the 45-minute test session the mice are exposed to a sequence of challenges. The cubes are cleaned between each run.
Digital videos of the subjects were processed through computer segmentation algorithms to fit geometrical models to each mouse frame image. The resulting fitted parameters were then analyzed using behavioral classifier algorithms to extract behavioral states, such as rearing, locomotion, and immobility. The data obtained in this way was used to define a drug signature for PGI's known reference compounds and establish a therapeutic class signature against which a test sample can be compared.
The data mining effort utilizes several analytical methods including Bayesian probabilistic density models and Decision trees. The algorithms consider ˜2,600 measures including frequency and duration of behavioral states such as grooming, rearing, etc., and many other features obtained during the test session.
Two major types of analyses are routinely conducted: Class and subclass.
Each reference drug was tested at multiple doses appropriate for that drug in mice.
Multiple analyses of the data were performed to quantitatively produce independent predictions of drug class, and drug subclass. The behavioral signatures of the test drugs were evaluated using these classifiers to predict potential therapeutic utility.
The results for the class and subclass analyses are presented as standardized bar charts with percentages that sum to 100 for each dose.
Similarity Analysis Using “Clouds Framework”. The outcome from SmartCube® is a large set of features (behavioral parameters) that can be used for various analyses. […] Therefore, we formed statistically independent combinations of the original features (further referred to as de-correlated features). Each de-correlated feature extracted information from the whole cluster of the original features, so the new feature space would have lower dimensionality. Next, we applied a proprietary feature ranking algorithm to score each feature for its discrimination power (ability to separate the two groups, e.g. vehicle from treatment). Ranking is an important part of our analyses because it weighs each feature change by its relevance. We applied a feature ranking algorithm, derived from support vector in the support vector machine learning method, to rank each feature.

Enzyme and uptake assays = assay type: biochemical; details: human recombinant; [3H]NE incorporation into cells; read-out: IC50, Norepinephrine transporter uptake (h)
Experimental: A study was conducted to test 5 compounds in cellular and nuclear receptor functional and enzyme and uptake assays.
The results are expressed as a percent of control specific activity
and as a percent inhibition of control specific activity
The IC50 values (concentration causing a half-maximal inhibition of control specific activity), EC50 values (concentration producing a half-maximal increase in control basal activity), and Hill coefficients (nH) were determined by non-linear regression analysis of the inhibition/concentration-response curves generated with mean replicate values using Hill equation curve fitting
where Y=specific activity, A=left asymptote of the curve, D=right asymptote of the curve, C=compound concentration, C50=IC50 or EC50, and nH=slope factor. This analysis was performed using software developed at Cerep (Hill software) and validated by comparison with data generated by the commercial software SigmaPlot® 4.0 for Windows® (© 1997 by SPSS Inc.).
In Vitro Pharmacology. Results showing an inhibition (or stimulation for assays run in basal conditions) higher than 50% were considered to represent significant effects of the test compounds. Results showing an inhibition (or stimulation) between 25% and 50% are indicative of weak to moderate effects. Results showing an inhibition (or stimulation) lower than 25% were not considered significant and mostly attributable to variability of the signal around the control level. […]

[2] = Tissue binding in CD-1 mouse brain homogenate (equilibrium dialysis); details: for stability in mouse brain homogenate / Analyte Peak area/IS Peak area CR (buffer side) / Analyte Peak area/IS Peak area Co (time zero) / % Unbound Experimental / Analyte Peak area/IS Peak area CD (brain homogenate side): 2 μM; for stability in mouse brain homogenate: dialysis conditions; for Analyte Peak area/IS Peak area CR (buffer side) / Analyte Peak area/IS Peak area CD (brain homogenate side): 4 hr dialysis (COMPOUND A 1 hr); for % Unbound Experimental: 4 hr
[3] = intestinal homogenate, Human intestinal homogenates
[4] = intestinal homogenate, Human intestinal homogenates, read-out: CLint(mic.)
[5] = human intestinal homogenate, 1 μM, 0 min
[6] = human intestinal homogenate, 1 μM, 5 min
[7] = human intestinal homogenate, 1 μM, 10 min
[8] = human intestinal homogenate, 1 μM, 20 min
[9] = human intestinal homogenate, 1 μM, 30 min
[10] = human intestinal homogenate, 1 μM, 60 min
[11] = human intestinal homogenate, 1 μM, NCF60 (no cofactor at 60 min)
[12] = human intestinal homogenate, 1 μM
[13] = human intestinal homogenate, 1 μM, read-out: CLint(HIH)

| SMILES | % Remaining at 60 min ([1]; Human intestinal homogenates) | IC50 (Enzyme and uptake assays) | % Remaining [1, 5] | Analyte Peak area/IS Peak area Mean (n = 2) [1, 5] | % Remaining [1, 6] | Analyte Peak area/IS Peak area Mean (n = 2) [1, 6] | % Remaining [1, 7] | Analyte Peak area/IS Peak area Mean (n = 2) [1, 7] | % Remaining [1, 8] | Analyte Peak area/IS Peak area Mean (n = 2) [1, 8] | % Remaining [1, 9] | Analyte Peak area/IS Peak area Mean (n = 2) [1, 9] | % Remaining [1, 10] | Analyte Peak area/IS Peak area Mean (n = 2) [1, 10] | % Remaining [1, 11] | Analyte Peak area/IS Peak area Mean (n = 2) [1, 11] | half-life at 1 μM [1, 12] | stability in mouse brain homogenate [2] | Analyte Peak area/IS Peak area CR (buffer side) ([2]; mouse brain homogenate) | Analyte Peak area/IS Peak area Co (time zero) ([2]; mouse brain homogenate) | also measured |
| --- | --- | --- | --- | --- | --- | --- | --- | --- | --- | --- | --- | --- | --- | --- | --- | --- | --- | --- | --- | --- | --- |
| CCOc1ccccc1OCC1CN(C(=O)OC(OC(=O)[C@@H](N)C(C)C)C(C)C)CCO1 (some centres unmarked) [COMPOUND E] | 0.90% | 2600 nM | – | – | – | – | – | – | – | – | – | – | – | – | – | – | – | – | – | – | half-life at 1 μM [1, 3]: 10.8 min; microsomal CLint at 1 μM [1, 4]: 128 µL/min/mg; behavioral activity (class/subclass analysis) (behavioral signature; 40 and 80 mg/kg PO): moderate activity |
| CCOc1ccccc1OC[C@@H]1CN(C(=O)OC(C)OC(=O)[C@@H](N)C(C)C)CCO1 (some centres unmarked) [COMPOUND A] | – | 390 nM | 100% | 0.269 | 0% | 0.000 | 0% | 0.000 | 0% | 0.000 | 0% | 0.000 | 0% | 0.000 | 0% | 0.000 | < 2.5 min | unstable | 0.0003 and 0.0002 | 0.010 and 0.012 | behavioral activity (class/subclass analysis) (behavioral signature; 30-120 mg/kg PO): high behavioral activity; Subclass signature (behavioral signature): predominantly cognitive enhancer-like; proximity to donepezil (behavioral signature): > 65%; proximity to thioperamide (behavioral signature): > 75%; % remaining after 1 hr ([2]; mouse brain homogenate, 1 hr (data not shown)): ^dCan't be determined due to instability of test article, which has 1.3% remaining after 1 hr (data not shown). |
| CCOc1ccccc1OC[C@@H]1CN(C(=O)OC(OC(=O)[C@H](N)C(C)C)C(C)C)CCO1 (some centres unmarked) [COMPOUND C] | – | 1800 nM | 100% | 0.286 | 4.4% | 0.013 | 3.0% | 0.009 | 1.3% | 0.004 | 0.67% | 0.002 | 0.08% | 0.000 | 0.12% | 0.000 | 7.2 min | unstable | 0.001 | 0.036 and 0.037 and 0.041 | microsomal CLint at 1 μM [1, 13]: 192 µL/min/mg; behavioral activity (class/subclass analysis) (behavioral signature; 60-150 mg/kg PO): high behavioral activity; proximity to donepezil (behavioral signature): around 100%; proximity to thioperamide (behavioral signature): around 100%; proximity to amphetamine (behavioral signature; DRFA, active doses): > 75%; proximity to atomoxetine (behavioral signature; DRFA, active doses): > 75%; class signature (behavioral signature; highest dose tested (150 mg/kg PO)): predominant antipsychotic-like signature; % Unbound Experimental ([2]; mouse brain homogenate): 20.9%; Analyte Peak area/IS Peak area CD (brain homogenate side) ([2]; mouse brain homogenate): 0.002 and 0.003 |
| CCOc1ccccc1OC[C@@H]1CN(C(=O)OC(OC(=O)[C@@H](N)C(C)C)C(C)C)CCO1 (some centres unmarked) [COMPOUND B] | – | 1900 nM | 100% | 0.275 | 7.3% | 0.020 | 7.1% | 0.020 | 6.1% | 0.017 | 2.7% | 0.007 | 0.57% | 0.002 | 0.8% | 0.002 | 10.3 min | unstable | 0.001 and 0.002 | 0.057 and 0.059 and 0.064 | microsomal CLint at 1 μM [1, 13]: 135 µL/min/mg; behavioral activity (class/subclass analysis) (behavioral signature; 90 and 120 mg/kg PO): high behavioral activity; Subclass signature (behavioral signature): predominantly cognitive enhancer-like; % Unbound Experimental ([2]; mouse brain homogenate): 15.5%; Analyte Peak area/IS Peak area CD (brain homogenate side) ([2]; mouse brain homogenate): 0.009 and 0.010 |
| CCOc1ccccc1OCC1CN(C(=O)OC(C)OC(=O)[C@H](N)C(C)C)CCO1 (some centres unmarked) [COMPOUND D] | 0.00% | 870 nM | – | – | – | – | – | – | – | – | – | – | – | – | – | – | – | – | – | – | half-life at 1 μM [1, 3]: 0.85 min; microsomal CLint at 1 μM [1, 4]: 1630 µL/min/mg; behavioral activity (class/subclass analysis) (behavioral signature; 40 and 80 mg/kg PO): dose dependent increase in activity |
